Converted amounts (≈) assume the structure as drawn.
Experiments:
[1] = cited from earlier work
[2] = human, in vivo
From the text: Patients were selected from volunteers aged 18 to 65 years, inclusive, with a Body Mass Index (BMI) between […] inclusive and free from any significant diseases including cardiac, renal and gastrointestinal disease. […] The crossover design eliminated potential treatment effects on the outcome, as well as effectively allowing the subject to serve as their own control. Each dosing occasion was separated by a 7-14 day washout period. Fasting conditions represented an overnight fast of at least 10 hours and fed state was after a high calorie, high fat breakfast 30 minutes prior to dosing.
The % EMT was quantified from human plasma according to methods based on the FDA Bioanalytical Method Validation Guide for Industry and the EMA Guideline on bioanalytical method validation (York Bioanalytical Solutions). Briefly, plasma samples were submitted to supported liquid extraction and liquid chromatography with tandem mass spectrometric detection (lower limit of quantification 5.00 ng/ml with a sample aliquot volume of 100 microliters). The analytes detected were esomeprazole, 5-hydroxyomeprazole, and omeprazole sulphone and were validated against commercial samples and calibration standards. […] Calibration samples were obtained commercially as follows: esomeprazole (Sigma-Aldrich), 5-hydroxyomeprazole, and omeprazole sulphone (Toronto Chemicals Inc.). Internal standards omeprazole d3, 5-hydroxyomeprazole d3 and omeprazole sulphone-d3 were also utilized (Toronto Chemicals Inc.). Plasma samples were stored at −20° C. Data was collected using Analyst software (Applied Biosystems-Sciex) in combination with Watson LIMS (Thermo Fisher Scientific); peak area ratios were used to generate calibration curves using regression functions.

[3] = as the magnesium trihydrate, cited from earlier work

- Intra-subject Coefficient of Variation of AUCinf [2]: 40.85 CV %
- Intra-subject Coefficient of Variation of AUCt [2]: 83.08 CV %
- Intra-subject Coefficient of Variation of Cmax [2]: 97.51 CV %
Structure (SMILES): COc1ccc2nc([S@@+]([O-])Cc3ncc(C)c(OC)c3C)[nH]c2c1 [Esomeprazole]
- stability in acid conditions ([1]; acid conditions): degrades
- stability at pH 6.8 ([1]; pH 6.8): stable
- solubility in heptane [3]: insoluble
- solubility in water ([3]; in water at 25° C.): 1500 µg/mL (≈ 4.34 mM)

Source: patent publication US10813886B2, “Methods and systems for improved bioavailability of active pharmaceutical ingredients including esomeprazole” (priority 2013, dated 2020)
